Assay results taken from the NIST ThermoML archive (doi:10.1016/j.jct.2015.10.001).

Assay: mn = molality of the nth substance listed, in mol/kg
Conditions: 100 kPa, Liquid; for viscosity: Capillary tube (Ostwald / Ubbelohde) method; for electrical conductivity: Direct current cell with electrodes; for mass density: Vibrating tube method

CCCCn1cc[n+](C)c1.O=C([O-])c1ccccc1O [1-butyl-3-methylimidazolium salicylate] + O
Conditions	electrical conductivity [S/m]	mass density [kg/m3]	viscosity [mPa·s]
293.15 K, m1 = 0.001	0.007	–	–
293.15 K, m1 = 0.0037	0.0231	–	–
293.15 K, m1 = 0.00579	–	998.44	–
293.15 K, m1 = 0.0058	–	–	1.031
293.15 K, m1 = 0.0062	0.0356	–	–
293.15 K, m1 = 0.007	–	998.49	–
293.15 K, m1 = 0.0071	–	–	1.035
293.15 K, m1 = 0.0072	0.0399	–	–
293.15 K, m1 = 0.008	0.0439	–	–
293.15 K, m1 = 0.00801	–	998.53	–
293.15 K, m1 = 0.01	0.0517	–	–
293.15 K, m1 = 0.01056	–	998.64	–
293.15 K, m1 = 0.0117	–	–	1.046
293.15 K, m1 = 0.01278	–	998.73	–
293.15 K, m1 = 0.0144	0.0674	–	–
293.15 K, m1 = 0.0158	–	998.86	–
293.15 K, m1 = 0.01707	–	998.92	–
293.15 K, m1 = 0.0205	–	–	1.065
293.15 K, m1 = 0.02056	–	999.07	–
293.15 K, m1 = 0.0221	0.0901	–	–
293.15 K, m1 = 0.02523	–	999.27	–
293.15 K, m1 = 0.0353	–	–	1.091
293.15 K, m1 = 0.0384	–	–	1.096
293.15 K, m1 = 0.0552	–	–	1.123
293.15 K, m1 = 0.0765	–	–	1.155
298.15 K, m1 = 0.001	0.0079	–	–
298.15 K, m1 = 0.0037	0.0262	–	–
298.15 K, m1 = 0.00579	–	997.28	–
298.15 K, m1 = 0.0058	–	–	0.925
298.15 K, m1 = 0.0062	0.0404	–	–
298.15 K, m1 = 0.007	–	997.33	–
298.15 K, m1 = 0.0071	–	–	0.93
298.15 K, m1 = 0.0072	0.0452	–	–
298.15 K, m1 = 0.008	0.0498	–	–
298.15 K, m1 = 0.00801	–	997.37	–
298.15 K, m1 = 0.01	0.0588	–	–
298.15 K, m1 = 0.01056	–	997.48	–
298.15 K, m1 = 0.0117	–	–	0.943
298.15 K, m1 = 0.01278	–	997.57	–
298.15 K, m1 = 0.0144	0.0771	–	–
298.15 K, m1 = 0.0158	–	997.7	–
298.15 K, m1 = 0.01707	–	997.75	–
298.15 K, m1 = 0.0205	–	–	0.964
298.15 K, m1 = 0.02056	–	997.9	–
298.15 K, m1 = 0.0221	0.103	–	–
298.15 K, m1 = 0.02523	–	998.11	–
298.15 K, m1 = 0.0353	–	–	0.993
298.15 K, m1 = 0.0384	–	–	0.998
298.15 K, m1 = 0.0552	–	–	1.026
298.15 K, m1 = 0.0765	–	–	1.058
303.15 K, m1 = 0.001	0.0089	–	–
303.15 K, m1 = 0.0037	0.0297	–	–
303.15 K, m1 = 0.00579	–	995.88	–
303.15 K, m1 = 0.0058	–	–	0.838
303.15 K, m1 = 0.0062	0.0454	–	–
303.15 K, m1 = 0.007	–	995.93	–
303.15 K, m1 = 0.0071	–	–	0.842
303.15 K, m1 = 0.0072	0.0507	–	–
303.15 K, m1 = 0.008	0.0559	–	–
303.15 K, m1 = 0.00801	–	995.97	–
303.15 K, m1 = 0.01	0.0659	–	–
303.15 K, m1 = 0.01056	–	996.07	–
303.15 K, m1 = 0.0117	–	–	0.857
303.15 K, m1 = 0.01278	–	996.17	–
303.15 K, m1 = 0.0144	0.0871	–	–
303.15 K, m1 = 0.0158	–	996.29	–
303.15 K, m1 = 0.01707	–	996.35	–
303.15 K, m1 = 0.0205	–	–	0.879
303.15 K, m1 = 0.02056	–	996.5	–
303.15 K, m1 = 0.0221	0.118	–	–
303.15 K, m1 = 0.02523	–	996.7	–
303.15 K, m1 = 0.0353	–	–	0.911
303.15 K, m1 = 0.0384	–	–	0.917
303.15 K, m1 = 0.0552	–	–	0.945
303.15 K, m1 = 0.0765	–	–	0.979
308.15 K, m1 = 0.001	0.0099	–	–
308.15 K, m1 = 0.0037	0.0328	–	–
308.15 K, m1 = 0.00579	–	994.27	–
308.15 K, m1 = 0.0058	–	–	0.765
308.15 K, m1 = 0.0062	0.0501	–	–
308.15 K, m1 = 0.007	–	994.32	–
308.15 K, m1 = 0.0071	–	–	0.77
308.15 K, m1 = 0.0072	0.057	–	–
308.15 K, m1 = 0.008	0.0623	–	–
308.15 K, m1 = 0.00801	–	994.36	–
308.15 K, m1 = 0.01	0.0745	–	–
308.15 K, m1 = 0.01056	–	994.46	–
308.15 K, m1 = 0.0117	–	–	0.787
308.15 K, m1 = 0.01278	–	994.55	–
308.15 K, m1 = 0.0144	0.0986	–	–
308.15 K, m1 = 0.0158	–	994.68	–
308.15 K, m1 = 0.01707	–	994.74	–
308.15 K, m1 = 0.0205	–	–	0.811
308.15 K, m1 = 0.02056	–	994.89	–
308.15 K, m1 = 0.0221	0.133	–	–
308.15 K, m1 = 0.02523	–	995.09	–
308.15 K, m1 = 0.0353	–	–	0.845
308.15 K, m1 = 0.0384	–	–	0.851
308.15 K, m1 = 0.0552	–	–	0.882
308.15 K, m1 = 0.0765	–	–	0.916
313.15 K, m1 = 0.001	0.011	–	–
313.15 K, m1 = 0.0037	0.0362	–	–
313.15 K, m1 = 0.00579	–	992.45	–
313.15 K, m1 = 0.0058	–	–	0.701
313.15 K, m1 = 0.0062	0.0551	–	–
313.15 K, m1 = 0.007	–	992.5	–
313.15 K, m1 = 0.0071	–	–	0.707
313.15 K, m1 = 0.0072	0.0629	–	–
313.15 K, m1 = 0.008	0.0686	–	–
313.15 K, m1 = 0.00801	–	992.54	–
313.15 K, m1 = 0.01	0.0826	–	–
313.15 K, m1 = 0.01056	–	992.64	–
313.15 K, m1 = 0.0117	–	–	0.723
313.15 K, m1 = 0.01278	–	992.73	–
313.15 K, m1 = 0.0144	0.111	–	–
313.15 K, m1 = 0.0158	–	992.86	–
313.15 K, m1 = 0.01707	–	992.91	–
313.15 K, m1 = 0.0205	–	–	0.749
313.15 K, m1 = 0.02056	–	993.06	–
313.15 K, m1 = 0.0221	0.149	–	–
313.15 K, m1 = 0.02523	–	993.26	–
313.15 K, m1 = 0.0353	–	–	0.783
313.15 K, m1 = 0.0384	–	–	0.789
313.15 K, m1 = 0.0552	–	–	0.819
313.15 K, m1 = 0.0765	–	–	0.853
